US12338219B2, “Antimalarial agents” (Merck Sharp & Dohme LLC, priority 2019, dated 2025)

Test system: parasites (ring stage parasites, parasite growth)
Assay: Parasite LDH growth assay (Parasite Assay), antiparasite potency
Assay type: cell-based
Settings: 72 hours growth, LDH readout
Protocol: Assessing Antiparasite Potency in a Parasite LDH Growth Assay (Parasite Assay) The parasite stock was maintained at […] in RPMI-Hepes media buffered with sodium bicarbonate and supplemented with […]. […] On the day of assay set up, a blood smear of the parasite culture was Giemsa stained and counted. The parasitemia was adjusted to 0.7% rings and the haematocrit was diluted to 2% in RPMI-Hepes media buffered with sodium bicarbonate and supplemented with 500 heat inactivated human serum and 0.5% albumax. 30 ul of diluted parasites are then added into 10 ul of media+compound in pre-prepared Greiner TC assay plates. Parasite assay plates were placed in gassed humidified boxes in single layer and allowed to incubate at 37° C. for 72 hours. After 72 hours growth, assay plates are sealed with parafilm and frozen flat, in single file at −80° C. overnight. On the following day, assay plates are allowed to thaw at room temperature for 4 hours to which an LDH assay is performed to measure parasite growth.

| SMILES | EC50 (72 h, Table 3) [nM] | EC50 (Table 3) [nM] | other results |
| --- | --- | --- | --- |
| COCC[C@H]([C@@H]1C[C@H]1C(=O)N[C@H]1CC(C)(C)Oc2c(F)cc(F)cc21)N1C(=N)NC(C)(C)CC1=O [Example 113B] | 7.5 |  |  |
| COCC[C@H]([C@@H]1C[C@H]1C(=O)N[C@H]1CC(C)(C)Oc2cc(OC)ccc21)N1C(=N)NC(C)(C)CC1=O [Example 70B] | 19 |  |  |
| CCC1(CC)CC(=O)N([C@@H](c2cccnc2)[C@@H]2C(C)[C@H]2C(=O)N[C@H]2CC(C)(C)Oc3ccccc32)C(=N)N1 (some centres unmarked) [Example 56A] | 65 |  |  |
| CC1(C)CC(=O)N(C[C@@H]2C[C@H]2C(=O)NC2CC(C)(C)Oc3c(Cl)cc(Cl)cc32)C(=N)N1 (some centres unmarked) [Example 97A] | 180 |  |  |
| CCC1(CC)CC(=O)N([C@H](CCOC)[C@@H]2C[C@H]2C(=O)N[C@@H]2c3cc(Cl)ccc3OC(C)(C)[C@H]2O)C(=N)N1 [Example 150] |  |  | EC50 (72 h, Table 4 (unit inferred)): 3.9 nM |
| CC1(C)CC(=O)N([C@H](c2cccnc2)[C@@H]2C[C@H]2C(=O)N[C@@H]2c3ccccc3OC(C)(C)[C@H]2O)C(=N)N1 [Example 27] | 78 |  |  |
| CC1(C)CC(=O)N(C[C@@H]2C[C@H]2C(=O)N[C@H]2CC(C3CC3)Oc3ccccc32)C(=N)N1 (some centres unmarked) [Example 140A] | 220 |  |  |
| COc1cccc2c1C(NC(=O)[C@@H]1C[C@H]1[C@@H](c1cccnc1)N1C(=N)NC(C)(C)CC1=O)CC(C)(C)O2 (some centres unmarked) [Example 96B] |  | 3.3 |  |
| CC1(C)CC(=O)N(C[C@@H]2C[C@H]2C(=O)NC2CC(C)(C)Oc3c(Cl)cc(Cl)cc32)C(=N)N1 (some centres unmarked) [Example 97B] |  | 220 |  |
| CCC1(CC)CC(=O)N(CC2C(C(=O)N[C@H]3CC(C)(C)Oc4ccccc43)C2(F)F)C(=N)N1 (single isomer, unassigned) [Example 16B] |  | 119 |  |
| CC1[C@@H](C(c2cccnc2)N2C(=N)NC(C)(C)CC2=O)[C@@H]1C(=O)N[C@H]1C[C@H](C(F)(F)F)Oc2ccccc21 (single isomer, unassigned) [Example 54B] |  | 130 |  |
| COCC1(C)CC(NC(=O)[C@@H]2C[C@H]2[C@@H](c2cccnc2)N2C(=N)NC(C)(C)CC2=O)c2ccccc2O1 (single isomer, unassigned) [Example 108C] |  | 6 |  |
| COCC[C@H]([C@@H]1C[C@H]1C(=O)N[C@@H]1C[C@@H](C(F)(F)F)Oc2ccccc21)N1C(=N)NC(C)(C)CC1=O [Example 24A] |  | 3.4 |  |
| CCC1(CC)CC(=O)N([C@H](CCOC)[C@@H]2C[C@H]2C(=O)N[C@H]2c3ccccc3OC(C)(C)[C@@H]2O)C(=N)N1 [Example 144] |  |  | EC50 (72 h, Table 4 (unit inferred)): 165 nM |
| Cc1ccc2c(c1)OC(C)(C)C[C@@H]2NC(=O)[C@@H]1C[C@H]1CN1C(=N)NC(C)(C)CC1=O [Example 84] | 289 |  |  |
| CCC1(CC)CC(=O)N([C@H](c2cccnc2)[C@@H]2C(C)[C@H]2C(=O)N[C@H]2CC(C)(C)Oc3ccccc32)C(=N)N1 (some centres unmarked) [Example 56B] | 0.7 |  |  |
| COCC[C@H]([C@@H]1C[C@H]1C(=O)NC1CC(C)(C)Oc2c(Cl)cccc21)N1C(=N)NC(C)(C)CC1=O (some centres unmarked) [Example 112A] | 18 |  |  |
| CC[C@]1(C)CC(=O)N([C@@H](c2cncc(F)c2)[C@@H]2C[C@H]2C(=O)N[C@@H]2c3ccccc3OCC2(C)C)C(=N)N1 [Example 102B] | 2.5 |  |  |
| CCC1(CC)CC(=O)N(CC2C(C(=O)N[C@H]3C[C@H](C(F)(F)F)Oc4ccccc43)C2(F)F)C(=N)N1 (single isomer, unassigned) [Example 17A] |  | 47 |  |
| CCC1(CC)CC(=O)N(C[C@H]2C[C@@H]2C(=O)N[C@@H]2c3ccccc3C[C@H]2O)C(=N)N1 [Example 6A] | 188 |  |  |
| CC1(C)CC(=O)N([C@H](c2cccnc2)[C@@H]2C[C@H]2C(=O)N[C@H]2CC(C)(C)Oc3ccccc32)C(=N)N1 [Example 26] | 4.7 |  |  |
| CC[C@]1(C)CC(=O)N(C(c2cncc(F)c2)[C@@H]2C[C@H]2C(=O)N[C@@H]2c3ccccc3OC(C)(C)C2(C)O)C(=N)N1 (single isomer, unassigned) [Example 103B] |  | 2.1 |  |
| COc1cncc([C@H]([C@@H]2C[C@H]2C(=O)N[C@H]2CC(C)(C)Oc3ccccc32)N2C(=N)NC(C)(C)CC2=O)c1 [Example 40] | 3.1 |  |  |
